From patent US12385042B2, “Cell-penetrating peptides” (VECTIOPEP OÜ, priority 2019, dated 2025)
Entries after “also recorded” stand apart in the source; their conditions may differ. Read-outs that look alike come from different tables or passages of the source. Where a SMILES comes first, the peptide text is derived from it. Bridges are numbered along the chain shown (N, C = ends). Roman numbers before positions name the chains, in order. [ ]: non-standard residue; d: D form. The star is where a group is joined. Arachidoyl = CCCCCCCCCCCCCCCCCCCC(=O)*; Stearoyl = CCCCCCCCCCCCCCCCCC(=O)*; Orn = NCCC[C@H](N)C(=O)O

What was measured:
[1] = Fluorescent dye (PicoGreen) intercalation and heparin displacement assay of CPP/siRNA complexes; assay type: physicochemical; settings: for accessibility of siRNA in complexes (dye intercalation): MR30, no heparin
Summary of the method: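 PicoGreen fluorescence (ex 492/em 535 nm) of CPP/siRNA complexes in water after 5 min with dye, reporting siRNA accessibility. In the displacement arm, complexes were first incubated with heparin at varying concentrations for 30 min at 37 °C before adding PicoGreen.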

[2] = test system: U87 MG-luc2 human glioma cells, stably expressing luc2; assay: Luciferase gene downregulation by CPP/siRNA (siLuc2) complexes; assay type: cell-based; settings: for luciferase downregulation efficiency (in words) / Red (%) (reduction, based on remaining luminescence on U87 cells post-treatment): CPP/siRNA complexes; for luciferase downregulation efficiency (in words): comparison between CPPs; for Red (%) (reduction, based on remaining luminescence on U87 cells post-treatment): siRNA against luciferase; for IC50: read-out: IC50 (siRNA concentration), luciferase downregulation; for remaining reporter activity: molar ratio 30 (MR30, peptide to siRNA), untreated cells 100%
Summary of the method: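 U87-luc2 cells in serum-containing medium got peptide/siLuc2 complexes formed in water (pH 5.3-6.3, MR 40:1, 1 h RT) at 25 nM siRNA for 4 h at 37 °C, then 20 h more. Lysate luminescence normalized to protein; in other runs, MR30/10 nM in HEPES-FBS, or varied MR at 50 nM, vs untreated (100%).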

[3] = test system: murine red blood cells; assay: Membrane activity assay on murine red blood cells: hemolysis; assay type: cell-based, mouse; settings: for HC50 CPP/siRNA complex (peptide concentration): CPP/siRNA complexes at MR30; for HC50 Free peptide: pH 7.5
Summary of the method: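 Washed BALB/c mouse RBCs in 2× PBS (pH 7.5 for hemolytic concentration; pH 5.5-7.5 otherwise) incubated with peptide plus glucose at 37° C for 1 h with gentle mixing. Released hemoglobin in supernatant read at 540 nm, scaled between glucose/water (0%) and 0.1% Triton X-100 (100%) controls.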

[4] = test system: CHO stably expressing green fluorescent protein (GFP); assay: GFP gene downregulation by CPP/siGFP complexes (lysate fluorescence, FACS, confocal); assay type: cell-based; settings: for GFP signal in confocal images: live cells treated with CPP/siGFP complexes
Protocol: For assessing the siRNA mediated RNAi, CHO-GFP or U87-luc2 cells (5×10^5 cells per well) were seeded on a 24-well plate a day prior to the experiment and grown in serum containing media. On experiment day, prior to adding pre-formed complexes ( 1/10th of the final volume per well), media was replaced with fresh serum containing medium.
For complex formation, peptide was mixed with luc2 siRNA (sense 5′-[…]-3′ (SEQ ID NO:7), antisense 5′-[…] 3′ (SEQ ID NO:8), Metabion, Germany) or with siRNA against GFP (5′-[…] (SEQ ID NO:9), 3′-[…] (SEQ ID NO:10)) in mQ water (pH 5.3-6.3) using peptide to siRNA molar ratios (MR is the ratio of peptide to siRNA) […] and incubated at RT for 1 h. For siLuc2, the final concentration in media was 25 nM and for siGFP 100 nM. Cells were co-incubated with complexes for 4 h (37° C., 5% CO2), thereafter fresh serum containing media was added and followed by further incubation (20 h for siLuc2 or 44 h for siGFP complexes). Luciferase gene downregulation was measured from cell lysates with Promega luciferase assay system (Promega, Sweden) in combination with GLOMAX 96 microplate luminometer equipped with GLOMAX 1.9.2 software (Promega). GFP was measured after treatment from cell lysates on black 96-well plates by measuring total fluorescence (Symergy MX, BioTek Instruments, USA equipped with Gen5 1.10 software). The results were normalized to the protein content of each sample (DC Protein Assay, BioRad, USA).
For flow cytometry analysis (FACS) analysis CHO-GFP cells were seeded and treated as described previously. After incubation, cells were washed with 1× PBS and detached from plates with trypsin-EDTA (0.25%), and re-suspended in PBS supplemented with FBS (5%) and transferred to transparent U-bottom 96-well plates. FACS was carried out with BD LSR II flow cytometer (BD Biosciences, San Jose, CA, USA) equipped with a 488 nm argon laser. Population of viable cells was determined from scatter plot: forward scattered plot (FSC) vs. side scattered light (SSC) plot. A minimum of 10,000 events from the viable cell population per sample were analyzed using BD FACS Diva software. Results are shown as the population with GFP signal lower than that of 0.1% of untreated cells.
For confocal microscopy 2×10^5 cells per chamber were seeded on NUNC 8-chamber plates. After treatment with complexes (25 ul of pre-formed CPP/siRNA complexes added to cells in 225 ul serum containing media), incubated (48 h) and GFP florescence images of cells were captured using confocal microscope Zeiss LSM 710 and excitation at 488 nm (493-616 filter).

[5] = complexes formed at MR30, average

| SMILES | accessibility of siRNA in complexes (dye intercalation) [1] | luciferase downregulation efficiency (in words) ([2]; listed as H6-C20) | Red (%) (reduction, based on remaining luminescence on U87 cells post-treatment) [2] | downregulation of luciferase activity ([2]; H6 series, effect of fatty acid length) | IC50 ([2]; complexes formed at MR30, average, listed as H6-C20) | IC50 [2, 5] | IC50 ([2]; complexes formed at MR30 and MR40, similar average value) | remaining reporter activity [2] | hemolytic concentration, fold higher than NF71 [3] | HC50 CPP/siRNA complex (peptide concentration) [3] | HC50 times higher than that of NF55 ([3]; free peptide) | HC50 Free peptide ([3]; free peptide) | pH dependent hemolytic activity (in words) ([3]; peptide 0.75 uM, buffer pH 5.5-7.5) | GFP signal in confocal images [4] | siRNA accessible ([1]; 0.5 mg/ml heparin, complexes pre-formed at MR30) | stability of complexes to heparin displacement (in words) ([1]; complexes pre-formed at MR30) | luciferase downregulation efficiency (in words) [2] | IC50 ([2]; complexes formed at MR20) | hemolytic activity of free peptide (in words) ([3]; free peptide, up to 10 uM) | downregulation of GFP (average, cell lysate fluorescence) ([4]; siGFP 100 nM) |
| --- | --- | --- | --- | --- | --- | --- | --- | --- | --- | --- | --- | --- | --- | --- | --- | --- | --- | --- | --- | --- |
| CCCCCCCCCCCCCCCCCCCC(=O)N[C@@H](Cc1c[nH]cn1)C(=O)N[C@@H](Cc1c[nH]cn1)C(=O)N[C@@H](Cc1c[nH]cn1)C(=O)N[C@@H](Cc1c[nH]cn1)C(=O)N[C@@H](Cc1ccc(O)cc1)C(=O)N[C@@H](Cc1c[nH]cn1)C(=O)N[C@@H](Cc1c[nH]cn1)C(=O)NCC(=O)NCCC[C@H](N)C(=O)N[C@H](C(=O)N[C@@H](CC(C)C)C(=O)N[C@@H](CC(C)C)C(=O)N[C@@H](CCCCN)C(=O)N[C@@H](C)C(=O)N[C@@H](CC(C)C)C(=O)N[C@@H](CCCCN)C(=O)N[C@@H](C)C(=O)N[C@@H](CC(C)C)C(=O)N[C@@H](C)C(=O)N[C@@H](CCCCN)C(=O)N[C@@H](C)C(=O)N[C@H](C(=O)N[C@@H](CC(C)C)C(N)=O)[C@@H](C)CC)[C@@H](C)CC [NF70] (I: H-[Orn]ILLKALKALAKAIL-NH2 / II: Arachidoyl-HHHHYHHG; amide I:1-II:C) | low accessibility of siRNA | equally strong downregulation of the luciferase gene; also recorded: at MR40 it was even more efficient than PF6 or H4-C18 | 92% | up to 95% | 14.7 nM | 14.8 nM | 14.7 to 14.8 nM | 15% | 3.6 | 8.3 µM | 2.5 times | 4.3 µM | the increase was less substantial | detected GFP signal was the lowest |  |  |  |  |  |  |
| CCCCCCCCCCCCCCCCCC(=O)N[C@@H](Cc1c[nH]cn1)C(=O)N[C@@H](Cc1c[nH]cn1)C(=O)N[C@@H](Cc1ccc(O)cc1)C(=O)N[C@@H](Cc1c[nH]cn1)C(=O)N[C@@H](Cc1c[nH]cn1)C(=O)NCC(=O)NCCC[C@H](N)C(=O)N[C@H](C(=O)N[C@@H](CC(C)C)C(=O)N[C@@H](CC(C)C)C(=O)N[C@@H](CCCCN)C(=O)N[C@@H](C)C(=O)N[C@@H](CC(C)C)C(=O)N[C@@H](CCCCN)C(=O)N[C@@H](C)C(=O)N[C@@H](CC(C)C)C(=O)N[C@@H](C)C(=O)N[C@@H](CCCCN)C(=O)N[C@@H](C)C(=O)N[C@H](C(=O)N[C@@H](CC(C)C)C(N)=O)[C@@H](C)CC)[C@@H](C)CC [NF71] (I: H-[Orn]ILLKALKALAKAIL-NH2 / II: Stearoyl-HHYHHG; amide I:1-II:C) | low accessibility of siRNA |  | 88% |  |  | 6.8 nM |  | 13% |  | 2.5 µM |  | 1.2 µM |  | detected GFP signal was the lowest | 17% | less resistant to heparin displacement than NF55/siRNA | most efficient peptides even at low MRs | 11.1 nM | more hemolytic than its parent peptide NF55 | lower than with H6^1-C20 or H8-C20 |
